≈ marks a conversion by molar mass, not a printed value. Where “and” joins values, the source holds several entries; their conditions need not be identical. Equal values may be shown once. Read-outs that look alike come from different tables or passages of the source.
What was measured:
[1] = Solubility assay in phosphate buffer
Method: The aqueous solubility of selected example compounds was determined as follows; 6 μL of DMSO stock solution of the selected example was added to 594 μL phosphate buffer (100 mM, pH 7.4). The resulting mixture was equilibrated over night (20-24 h, Alligator Shaker, room temperature). The mixture was then filtered (Millex LH 0.45 μm) and the concentration/solubility was determined by LC-UV quantification.

[2] = amide bond, 14-membered ring
[3] = biological target: human recombinant TAK1-TAB1 Kinase (TAK1 (1-303) and TAB1 (437-end)) (Homo sapiens (Human), UniProt O43318); assay: TAK1 biochemical ADP-Glo kinase assay; settings: MBP substrate
In short: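 Inhibition of human recombinant TAK1-TAB1 kinase was measured with a Promega ADP-Glo luminescence assay in 384-well plates. Compounds in 5% DMSO were pre-incubated 10 min with 2 μl TAK1-TAB1 (7.5 ng/μl) in buffer of Tris pH 7.5, MgCl2, DTT and BSA. MBP substrate and ATP were then added for 1 hour at room temperature. ADP-Glo reagent and kinase detection substrate followed, luminescence was read on an Envision, and IC50 came from non-linear regression.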

[4] = phosphate buffer, pH 7.4, aqueous buffer, kinetic from dmso stock, Solubility (μM), phosphate buffer 100 mM, pH 7.4, room temperature, 20-24 h, LC-UV
[5] = 10 μM ATP, read-out: TAK1 Mean IC50 (nM) @ 10 μM ATP
[6] = 1 mM ATP, read-out: TAK1 Mean IC50 (nM) @ 1 mM ATP
[7] = phosphate buffer 100 mM, pH 7.4, room temperature, 20-24 h, LC-UV

human recombinant TAK1-TAB1 Kinase (TAK1 (1-303) and TAB1 (437-end)), sequence (O43318 other isoform, or with tags, fused parts or gaps): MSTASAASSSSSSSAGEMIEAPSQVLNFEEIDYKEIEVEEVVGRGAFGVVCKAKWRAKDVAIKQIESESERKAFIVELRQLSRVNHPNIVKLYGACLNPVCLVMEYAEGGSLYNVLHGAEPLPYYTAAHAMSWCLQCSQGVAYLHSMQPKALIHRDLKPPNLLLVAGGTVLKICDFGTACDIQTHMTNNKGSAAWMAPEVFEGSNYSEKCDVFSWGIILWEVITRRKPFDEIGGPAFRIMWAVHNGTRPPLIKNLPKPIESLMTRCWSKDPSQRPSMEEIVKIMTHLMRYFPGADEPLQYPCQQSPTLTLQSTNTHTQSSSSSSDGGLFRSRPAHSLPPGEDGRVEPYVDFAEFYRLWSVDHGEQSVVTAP

| Structure (SMILES) | solubility [1, 4] [µM] | IC50 [3, 5] [nM] | other results |
| --- | --- | --- | --- |
| Cc1nnc(-c2cccc3nc4n(c23)[C@H](C)CCCCNC(=O)c2cccc(c2)C(=O)N4)n1C [Example 57, (R,E)-1^7-(4,5-dimethyl-4H-1,2,4-triazol-3-yl)-11-methyl-1^2,1^3-dihydro-1^1H-2,6-diaza-1(2,1)-benzo[d]imidazola-4(1,3)-benzenacycloundecaphane-3,5-dione] | 95 (≈ 43.5 µg/mL) | 3 | ring closure, yield after HPLC ([2]; from Cc1nnc(-c2cccc3nc(NC(=O)c4cccc(C(=O)O)c4)n([C@H](C)CCCCN)c23)n1C, HATU/DIEA, THF, 0.5 mM, 50.0 °C, 23.0 h): 31%; IC50 [3, 6]: 6 nM |
| CC1CCCCNC(=O)c2cccc(c2)C(=O)Nc2nc3cccc(-c4ccc[n+]([O-])c4)c3n21 (stereo not shown) [Example 33, (E)-3-(11-methyl-3,5-dioxo-1^2,1^3-dihydro-1^1H-2,6-diaza-1(2,1)-benzo[d]imidazola-4(1,3)-benzenacycloundecaphane-1^7-yl)pyridine 1-oxide] | – | 8 | ring closure, yield after HPLC ([2]; from CC(CCCCN)n1c(NC(=O)c2cccc(C(=O)O)c2)nc2cccc(-c3ccc[n+]([O-])c3)c21, HATU/DIEA, THF, 0.46 mM, 32.0 h, 2 steps): 7% |
| CC(=O)c1cc(C(=O)N(C)C)c2c(c1)nc1n2[C@H](C)CCCCNC(=O)c2cccc(c2)C(=O)N1 | – | – | ring closure, yield after HPLC ([2]; from CC(=O)c1cc(C(=O)N(C)C)c2c(c1)nc(NC(=O)c1cccc(C(=O)O)c1)n2[C@H](C)CCCCN, HATU/DIEA, THF, 0.49 mM, 25.0 °C, 120.0 h): 34% |
| CN1CCN(Cc2ccc3c(c2)nc2n3CCCCCNC(=O)c3cc(ccc3F)C(=O)N2)CC1 | – | – | ring closure, yield after HPLC ([2]; from CN1CCN(Cc2ccc3c(c2)nc(NC(=O)c2ccc(F)c(C(=O)O)c2)n3CCCCCN)CC1, TCFH/NMI, DMF/MeCN, 2.2 mM, 25.0 °C, 2.0 h): 16% |
| Cc1noc(-c2cccc3nc4n(c23)[C@@H](C)CCCCNC(=O)c2cccc(c2)C(=O)N4)n1 | – | – | ring closure, yield after HPLC ([2]; from Cc1noc(-c2cccc3nc(NC(=O)c4cccc(C(=O)O)c4)n([C@@H](C)CCCCN)c23)n1, TCFH/NMI, MeCN, 0.23 mM, 25.0 °C, 16.0 h): 92% |
| CC1CCCCNC(=O)c2cccc(c2)C(=O)Nc2nc3cccc(-c4ccc[nH]c4=O)c3n21 (stereo not shown) | – | – | ring closure, yield after HPLC ([2]; from CC(CCCCN)n1c(NC(=O)c2cccc(C(=O)O)c2)nc2cccc(-c3ccc[nH]c3=O)c21, TCFH/NMI, DMF, 3.6 mM, 1.0 h): 21% |
| CN1CCN(C(=O)c2ccc3nc4n(c3c2)CCCCCNC(=O)c2cccc(c2)C(=O)N4)CC1 [Example 97, (E)-1^6-(4-methylpiperazine-1-carbonyl)-1^2,1^3-dihydro-1^1H-2,6-diaza-1(2,1)-benzo[d]imidazola-4(1,3)-benzenacycloundecaphane-3,5-dione] | 5 (≈ 2.37 µg/mL) | 4 | – |
| C[C@@H]1CCCCNC(=O)c2cccc(c2)C(=O)Nc2nc3ccc(Cl)c(C(=O)N(C)C)c3n21 [Example 55, (R,E)-1^6-chloro-N,N,11-trimethyl-3,5-dioxo-1^2,1^3-dihydro-1^1H-2,6-diaza-1(2,1)-benzo[d]imidazola-4(1,3)-benzenacycloundecaphane-1^7-carboxamide] | – | 6 | solubility [1, 7]: 74.0 µM (≈ 34.6 µg/mL) |
| CC1CCCCNC(=O)c2cccc(c2)C(=O)/N=C2\Nc3cccc(C(=O)N4CC5(CCO5)C4)c3N21 (single isomer, unassigned) [Example 79, (E)-11-methyl-1^7-(1-oxa-6-azaspiro[3.3]heptane-6-carbonyl)-1^2,1^3-dihydro-1^1H-2,6-diaza-1(2,1)-benzo[d]imidazola-4(1,3)-benzenacycloundecaphane-3,5-dione] | – | 6 | solubility ([1]; phosphate buffer, pH 7.4, aqueous buffer, kinetic from dmso stock): 90 µM (≈ 43.9 µg/mL); IC50 [3, 6]: 7 nM |
| O=C1/N=C2\Nc3ccc(C(=O)N4CCNCC4)cc3N2CCCCCNC(=O)c2cccc1c2 [Example 100, (E)-1^6-(piperazine-1-carbonyl)-1^2,1^3-dihydro-1^1H-2,6-diaza-1(2,1)-benzo[d]imidazola-4(1,3)-benzenacycloundecaphane-3,5-dione] | 83.1 (≈ 38.3 µg/mL) | 2 | – |
| C[C@H]1CCCCNC(=O)c2cccc(c2)C(=O)Nc2nc3ccc(Cl)c(C(=O)N(C)C)c3n21 | – | – | ring closure, yield after HPLC ([2]; from C[C@@H](CCCCN)n1c(NC(=O)c2cccc(C(=O)O)c2)nc2ccc(Cl)c(C(=O)N(C)C)c21, HATU/DIEA, THF, 0.5 mM, 60.0 °C, 16.0 h): 7.1% and 6.3% |
| CN1CCCN(C(=O)c2cccc3c2N2CCCCCNC(=O)c4cccc(c4)C(=O)/N=C/2N3)CC1 [Example 26, (E)-1^7-(4-methyl-1,4-diazepane-1-carbonyl)-1^2,1^3-dihydro-1^1H-2,6-diaza-1(2,1)-benzo[d]imidazola-4(1,3)-benzenacycloundecaphane-3,5-dione] | 78.7 (≈ 38.5 µg/mL) | 5 | – |
| CN(C)C(=O)c1cccc2nc3n(c12)C1(CCCCNC(=O)c2cccc(c2)C(=O)N3)CC1 | – | – | ring closure, yield after HPLC ([2]; from CN(C)C(=O)c1cccc2nc(NC(=O)c3cccc(C(=O)O)c3)n(C3(CCCCN)CC3)c12, TCFH/NMI, MeCN/DMF, 0.31 mM, 25.0 °C, 16.0 h): 18% |
| C[C@H]1CCCCNC(=O)c2cccc(c2)C(=O)/N=C2\Nc3cc(C(C)(C)O)cc(C(=O)N(C)C)c3N21 [Example 123, (S,E)-1^5-(2-hydroxypropan-2-yl)-N,N,11-trimethyl-3,5-dioxo-1^2,1^3-dihydro-1^1H-2,6-diaza-1(2,1)-benzo[d]imidazola-4(1,3)-benzenacycloundecaphane-1^7-carboxamide] | 90 (≈ 44.2 µg/mL) | 4 | IC50 [3, 6]: 11 nM |
| C[C@@H]1CCCCNC(=O)c2cccc(c2)C(=O)/N=C2\Nc3cccc(C(=O)N4C[C@H]5C[C@@H]4CN5C)c3N21 [Example 29, (R, E)-11-methyl-1^7-((1R,4R)-5-methyl-2,5-diazabicyclo[2.2.1]heptane-2-carbonyl)-1^2,1^3-dihydro-1^1H-2,6-diaza-1(2,1)-benzo[d]imidazola-4(1,3)-benzenacycloundecaphane-3,5-dione] | 95 (≈ 47.6 µg/mL) | 6 | – |
| CC1CCCCNC(=O)c2cccc(c2)C(=O)/N=C2\Nc3cccc(-c4nccn4C)c3N21 (single isomer, unassigned) [Example 136, (E)-11-methyl-1^7-(1-methyl-1H-imidazol-2-yl)-1^2,1^3-dihydro-1^1H-2,6-diaza-1(2,1)-benzo[d]imidazola-4(1,3)-benzenacycloundecaphane-3,5-dione] | 11 (≈ 4.87 µg/mL) | 4 | – |
| O=C1NCCCCCCn2c(nc3ccccc32)NC(=O)c2cccc1c2 [Example 1, 1^1H-2,6-diaza-1(2,1)-benzo[d]imidazola-4(1,3)-benzenacyclododecaphane-3,5-dione] | 1.2 (≈ 0.435 µg/mL) | 27 | – |
| CC1CCCCNC(=O)c2cccc(c2)C(=O)Nc2nc3cccc(C(=O)N4CCN(C)CC4)c3n21 (stereo not shown) [Example 8, 11-methyl-1^7-(4-methylpiperazine-1-carbonyl)-1^1H-2,6-diaza-1(2,1)-benzo[d]imidazola-4(1,3)-benzenacycloundecaphane-3,5-dione] | 92.7 (≈ 45.3 µg/mL) | 5 | – |
| COC1(C)CN(C(=O)c2cccc3c2N2/C(=N/C(=O)c4cccc(c4)C(=O)NCCCCC2C)N3)C1 (stereo not shown) [Example 50, (E)-1^7-(3-methoxy-3-methylazetidine-1-carbonyl)-11-methyl-1^2,1^3-dihydro-1^1H-2,6-diaza-1(2,1)-benzo[d]imidazola-4(1,3)-benzenacycloundecaphane-3,5-dione] | – | 3 | solubility [1, 7]: 80.0 µM (≈ 39.2 µg/mL) |
| C[C@@H]1CCCCNC(=O)c2cccc(c2)C(=O)Nc2nc3ccc(Cl)c(C(=O)N(C)C)c3n21 | – | – | ring closure, yield after HPLC ([2]; from C[C@H](CCCCN)n1c(NC(=O)c2cccc(C(=O)O)c2)nc2ccc(Cl)c(C(=O)N(C)C)c21, HATU/DIEA, THF, 0.5 mM, 60.0 °C, 16.0 h): 5.3% and 5.7% |
| C[C@@H]1CCCCNC(=O)c2cccc(c2)C(=O)Nc2nc3cc(C(C)(C)O)cc(C(=O)N(C)C)c3n21 [Example 69, (R,E)-1^5-(2-hydroxypropan-2-yl)-N,N,11-trimethyl-3,5-dioxo-1^2,1^3-dihydro-1^1H-2,6-diaza-1(2,1)-benzo[d]imidazola-4(1,3)-benzenacycloundecaphane-1^7-carboxamide] | 93 (≈ 45.7 µg/mL) | 2 | – |
| CC1CCCCNC(=O)c2cccc(c2)C(=O)Nc2nc3cccc(C(=O)N(C)C)c3n21 (stereo not shown) | – | – | ring closure, yield after HPLC ([2]; from CC(CCCCN)n1c(NC(=O)c2cccc(C(=O)O)c2)nc2cccc(C(=O)N(C)C)c21, TCFH/NMI, MeCN/DMF, 1.6 mM, 1.0 h): 12% |
| CC1CCCCNC(=O)c2cccc(c2)C(=O)Nc2nc3cccc(C(=O)N4CCNCC4)c3n21 (stereo not shown) [Example 15, 11-methyl-1^7-(piperazine-1-carbonyl)-1^1H-2,6-diaza-1(2,1)-benzo[d]imidazola-4(1,3)-benzenacycloundecaphane-3,5-dione] | 90.1 (≈ 42.8 µg/mL) | 5 | – |
| CC1CCCCNC(=O)c2cccc(c2)C(=O)/N=C2\Nc3cccc(C(=O)N4CC[C@H](F)C4)c3N21 (single isomer, unassigned) [Example 89] | 88 (≈ 42 µg/mL) | 6 | – |
| CN1CCN(C(=O)c2ccc3c(c2)nc2n3CCCCCNC(=O)c3cccc(c3)C(=O)N2)CC1 [Example 11, 1^5-(4-methylpiperazine-1-carbonyl)-1^1H-2,6-diaza-1(2,1)-benzo[d]imidazola-4(1,3)-benzenacycloundecaphane-3,5-dione] | 4.8 (≈ 2.28 µg/mL) | 1 | – |

Reference: patent US20240279233A1, “MACROCYCLIC TAK1 INHIBITORS” (Aqilion AB, priority 2021, published 2024)
